# Biological target: T1, hTLR7 (Homo sapiens, UniProt Q9NYK1)
# T1 sequence (Q9NYK1 27-1049): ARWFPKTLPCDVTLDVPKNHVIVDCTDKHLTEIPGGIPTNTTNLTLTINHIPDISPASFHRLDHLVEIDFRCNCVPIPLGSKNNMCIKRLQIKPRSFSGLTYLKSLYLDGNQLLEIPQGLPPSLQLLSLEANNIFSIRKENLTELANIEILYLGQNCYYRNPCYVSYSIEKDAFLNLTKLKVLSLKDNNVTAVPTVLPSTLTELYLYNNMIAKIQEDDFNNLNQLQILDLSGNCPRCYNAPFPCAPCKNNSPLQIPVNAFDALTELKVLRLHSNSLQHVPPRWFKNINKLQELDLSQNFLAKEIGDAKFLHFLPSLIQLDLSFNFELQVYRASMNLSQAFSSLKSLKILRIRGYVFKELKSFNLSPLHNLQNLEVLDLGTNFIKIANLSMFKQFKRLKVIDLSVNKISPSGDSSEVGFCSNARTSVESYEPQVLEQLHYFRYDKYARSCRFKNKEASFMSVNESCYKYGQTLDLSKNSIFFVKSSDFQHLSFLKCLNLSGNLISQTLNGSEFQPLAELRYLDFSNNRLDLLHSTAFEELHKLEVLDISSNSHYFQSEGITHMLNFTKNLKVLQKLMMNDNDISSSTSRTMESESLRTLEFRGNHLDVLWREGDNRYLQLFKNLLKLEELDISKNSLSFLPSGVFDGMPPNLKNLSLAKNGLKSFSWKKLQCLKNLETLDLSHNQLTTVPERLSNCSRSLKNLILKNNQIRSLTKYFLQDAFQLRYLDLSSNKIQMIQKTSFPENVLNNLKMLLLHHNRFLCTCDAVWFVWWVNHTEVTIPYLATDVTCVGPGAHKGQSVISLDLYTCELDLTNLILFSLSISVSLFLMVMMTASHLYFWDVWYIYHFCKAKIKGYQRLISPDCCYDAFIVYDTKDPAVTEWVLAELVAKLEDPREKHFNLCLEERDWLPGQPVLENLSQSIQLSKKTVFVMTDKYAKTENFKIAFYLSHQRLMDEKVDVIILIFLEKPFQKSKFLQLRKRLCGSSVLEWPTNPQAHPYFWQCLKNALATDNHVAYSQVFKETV
# Assay: HEK293-Blue-hTLR-7 cells assay (SEAP reporter, R848 stimulation)
# Format: cell-based
# Set-up: host or cells: HEK293 (HEK-Blue)
# Conditions: HEK293-Blue-hTLR7 cells, R848, 20 hrs; read-out: HEK/hTLR7 IC50
# Source text: A stable HEK293-Blue-hTLR-7 cell line was purchased from InvivoGen (Cat.#: hkb-htlr7, San Diego, California, USA). These cells were originally designed for studying the stimulation of human TLR7 by monitoring the activation of NF-κB. A SEAP (secreted embryonic alkaline phosphatase) reporter gene was placed under the control of the IFN-β minimal promoter fused to five NF-κB and AP-1-binding sites. The SEAP was induced by activating NF-xB and AP-1 via stimulating HEK-Blue hTT,R7 cells with TLR7 ligands. Therefore, the reporter expression was declined by TLR7 antagonist under the stimulation of a ligand, such as R848 (Resiquimod), for incubation of 20 hrs. The cell culture supernatant SEAP reporter activity was determined using QUANTI-Blue™ kit (Cat.#: rep-qb1, Invivogen, San Diego, Ca, USA) at a wavelength of 640 nm, a detection medium that turns purple or blue in the presence of alkaline phosphatase.
# HEK293-Blue-hTLR7 cells were incubated at a density of 250,000-450,000 cells/mL in a volume of 170 µL in a 96-well plate in Dulbecco's Modified Eagle's medium (DMEM) containing 4.5 g/L glucose, 50 U/mL penicillin, […], […], 2 mM L-glutamine, 10% (v/v) heat-inactivated fetal bovine serum with addition of 20 µL test compound in a serial dilution in the presence of final DMSO at 1% and 10 µL of 20uM R848 in above DMEM, perform incubation under 37 °C in a CO2 incubator for 20 hrs. Then 20 µL of the supernatant from each well was incubated with 180 µL Quanti-blue substrate solution at 37 °C for 2 hrs and the absorbance was read at 620-655 nm using a spectrophotometer. The signaling pathway that TLR7 activation leads to downstream NF-xB activation has been widely accepted, and therefore similar reporter assay was modified for evaluating TLR7 antagonist.
row,SMILES,IC50
1,"C[C@@H]1CN(c2ccc(C#N)c3ncccc23)C[C@H](CN2CCN(c3ccc4c(c3)CCNC4)CC2)O1 [Example 5, 5-[(2R,6S)-2-methyl-6-[[4-(1,2,3,4-tetrahydroisoquinolin-6-yl)piperazin-1-yl]methyl]morpholin-4-yl]quinoline-8-carbonitrile]",31 nM
2,"C[C@@H]1CN(c2ccc(C#N)c3ncccc23)C[C@H](CN2CCN(c3ccc4c(n3)CCNC4)C[C@@H](O)C2)O1 (single isomer, unassigned) [Example 35B]",61 nM
3,"C[C@@H]1CN(c2ccc(C#N)c3ncccc23)C[C@H](CN2CC3(CCN3c3ccc4c(n3)CCNC4)C2)O1 [Example 36, 5-[(2R,6S)-2-methyl-6-[[1-(5,6,7,8-tetrahydro-1,6-naphthyridin-2-yl)-1,6-diazaspiro[3.3]heptan-6-yl]methyl]morpholin-4-yl]quinoline-8-carbonitrile]",26 nM
4,"C[C@@H]1CN(c2ccc(C#N)c3ncccc23)C[C@H](CN2CCN(c3ccc4c(c3)C(O)CNC4)CC2)O1 (stereo partly drawn) [Example 22, 5-[(2S,6R)-2-[[4-(4-hydroxy-1,2,3,4-tetrahydroisoquinolin-6-yl)piperazin-1-yl]methyl]-6-methyl-morpholin-4-yl]quinoline-8-carbonitrile]",39 nM
5,"C[C@@H]1CN(c2ccc(C#N)c3ncccc23)C[C@H](CN2CCN(c3ccc4c(n3)CNC4)CC2)O1 [Example 30, 5-[(2S,6R)-2-[[4-(6,7-dihydro-5H-pyrrolo[3,4-b]pyridin-2-yl)piperazin-1-yl]methyl]-6-methyl-morpholin-4-yl] quinoline-8-carbonitrile]",12 nM
6,"C[C@@H]1CN(c2ccc(C#N)c3ncccc23)C[C@H](CN2CCN(c3ncc4c(n3)CNCC4)CC2)O1 [Example 12, 5-[(2R,6S)-2-methyl-6-[[4-(5,6,7,8-tetrahydropyrido[3,4-d]pyrimidin-2-yl)piperazin-1-yl]methyl]morpholin-4-yl]quinoline-8-carbonitrile]",11 nM
7,"C[C@@H]1CN(c2ccc(C#N)c3ncccc23)C[C@H](CN2CCN(c3nc4c(s3)CNCC4)CC2)O1 [Example 31, 5-[(2R,6S)-2-methyl-6-[[4-(4,5,6,7-tetrahydrothiazolo[5,4-c]pyridin-2-yl)piperazin-1-yl]methyl]morpholin-4-yl]quinoline-8-carbonitrile]",11 nM
8,"C[C@@H]1CN(c2ccc(C#N)c3ncccc23)C[C@H](CN2CCN(c3ncc4c(n3)CNC4)CC2)O1 [Example 11, 5-[(2S,6R)-2-[[4-(6,7-dihydro-5Hpyrrolo[3,4-d]pyrimidin-2-yl)piperazin-1-yl]methyl]-6-methyl-morpholin-4-yl]quinoline-8-carbonitrile]",11 nM
9,"C[C@@H]1CN(c2ccc(C#N)c3ncccc23)C[C@H](CN2CCN(c3ccc4c(c3)CNC4)[C@@H](CO)C2)O1 [Example 4, 5-[(2S,6R)-2-[[(3R)-3-(hydroxymethyl)-4-isoindolin-5-yl-piperazin-1-yl]methyl]-6-methyl-morpholin-4-yl]quinoline-8-carbonitrile]",64 nM
10,"C[C@@H]1CN(c2ccc(C#N)c3ncccc23)C[C@H](CN2CCN(c3ccc4c(n3)CCNC4)C[C@H](O)C2)O1 (single isomer, unassigned) [Example 35A]",60 nM
11,"C[C@@H]1CN(c2ccc(C#N)c3ncsc23)C[C@H](CN2CCN(c3cnc4c(c3)CNC4)CC2)O1 [Example 8, 7-[(2S,6R)-2-[[4-(6,7-dihydro-5H-pyrrolo[3,4-b]pyridin-3-yl)piperazin-1-yl]methyl]-6-methyl-morpholin-4-yl]-1,3-benzothiazole-4-carbonitrile]",10 nM

# The next lines start with the values.
row,IC50,SMILES
1,6 nM,"C[C@@H]1CN(c2ccc(C#N)c3ncccc23)C[C@H](CN2C[C@H]3CN(c4ccc5c(n4)CCNC5)CC[C@@H]32)O1 (single isomer, unassigned) [Example 54]"
2,95 nM,"COc1ccc(N2CCN(C[C@H]3CN(c4ccc(C#N)c5ncccc45)C[C@@H](C)O3)CC2)cc1 [Example R1, 5-[(2S,6R)-2-[[4-(4-methoxyphenyl)piperazin-1-yl]methyl]-6-methyl-morpholin-4-yl]quinoline-8-carbonitrile, reference compound]"
3,5 nM,"C[C@@H]1CN(c2ccc(C#N)c3ncccc23)C[C@H](CN2CCN(c3ncnc4c3CNCC4)CC2)O1 [Example 61, 5-[(2R,6S)-2-methyl-6-[[4-(5,6,7,8-tetrahydropyrido[4,3-d]pyrimidin-4-yl)piperazin-1-yl]methyl]morpholin-4-yl]quinoline-8-carbonitrile]"
4,7 nM,"C[C@@H]1CN(c2ccc(C#N)c3ncccc23)C[C@H](CN2CCN(c3cc4c(cn3)CCN[C@@H]4C)CC2)O1 (single isomer, unassigned) [Example 74]"
5,9 nM,"C[C@@H]1CN(c2ccc(C#N)c3ncccc23)C[C@H](CN2CC3(C2)CN(c2ccc4c(n2)CNCC4)CCO3)O1 [Example 45, 5-[(2R,6S)-2-methyl-6-[[8-(5,6,7,8-tetrahydro-1,7-naphthyridin-2-yl)-5-oxa-2,8-diazaspiro[3.5]nonan-2-yl]methyl]morpholin-4-yl]quinoline-8-carbonitrile]"
6,28 nM,"CC1NCc2ncc(N3CCN(C[C@H]4CN(c5ccc(C#N)c6ncccc56)C[C@@H](C)O4)CC3)cc21 (stereo partly drawn) [Example 41, 5-[(2R,6S)-2-methyl-6-[[4-(5-methyl-6,7-dihydro-5H-pyrrolo[3,4-b]pyridin-3-yl)piperazin-1-yl]methyl]morpholin-4-yl]quinoline-8-carbonitrile]"
7,4 nM,"C[C@@H]1CN(c2ccc(C#N)c3ncccc23)C[C@H](CN2C[C@H]3CN(c4ccc5c(n4)CCNC5)CC[C@H]32)O1 (single isomer, unassigned) [Example 55]"
8,14 nM,"C[C@@H]1CN(c2ccc(C#N)c3ncccc23)C[C@H](CN2CCN(c3cc4c(cn3)C[C@H](C)NC4)CC2)O1 (single isomer, unassigned) [Example 76]"
9,16 nM,"COC1CNCc2ccc(N3CCN(C[C@H]4CN(c5ccc(C#N)c6ncccc56)C[C@@H](C)O4)CC3)cc21 (stereo partly drawn) [Example 58, 5-[(2S,6R)-2-[[4-(4-methoxy-1,2,3,4-tetrahydroisoquinolin-6-yl)piperazin-1-yl]methyl]-6-methyl-morpholin-4-yl]quinoline-8-carbonitrile]"
10,8 nM,"C[C@@H]1CN(c2ccc(C#N)c3ncccc23)C[C@H](CN2CCN(c3cc4c(cn3)CCN[C@H]4C)CC2)O1 (single isomer, unassigned) [Example 75]"
11,12 nM,"C[C@@H]1CN(c2ccc(C#N)c3ncccc23)C[C@H](CN2CCN(c3ccc4c(n3)CNCC4)CC2)O1 [Example 69, 5-[(2R,6S)-2-methyl-6-[[4-(5,6,7,8-tetrahydro-1,7-naphthyridin-2-yl)piperazin-1-yl]methyl]morpholin-4-yl]quinoline-8-carbonitrile]"
12,12 nM,"C[C@@H]1CN(c2ccc(C#N)c3ncccc23)C[C@H](CN2CC3(C2)CN(c2cnc4c(c2)CCNC4)CCO3)O1 [Example 46, 5-[(2R,6S)-2-methyl-6-[[8-(5,6,7,8-tetrahydro-1,7-naphthyridin-3-yl)-5-oxa-2,8-diazaspiro[3.5]nonan-2-yl]methyl]morpholin-4-yl]quinoline-8-carbonitrile]"
13,13 nM,"C[C@@H]1CN(c2ccc(C#N)c3ncccc23)C[C@H](CN2CCN(c3cnc4c(c3)CN[C@H]4C)CC2)O1 (single isomer, unassigned) [Example 67]"

# Source: EP3807270B1, “NOVEL HETEROARYL HETEROCYCLYL COMPOUNDS FOR THE TREATMENT OF AUTOIMMUNE DISEASE” (F. Hoffmann-La Roche AG, priority 2018, dated 2019)
